Series [1] addresses T1, Tyrosine-protein kinase Mer (Homo sapiens, UniProt Q12866).
T1 sequence (Q12866 whole entry): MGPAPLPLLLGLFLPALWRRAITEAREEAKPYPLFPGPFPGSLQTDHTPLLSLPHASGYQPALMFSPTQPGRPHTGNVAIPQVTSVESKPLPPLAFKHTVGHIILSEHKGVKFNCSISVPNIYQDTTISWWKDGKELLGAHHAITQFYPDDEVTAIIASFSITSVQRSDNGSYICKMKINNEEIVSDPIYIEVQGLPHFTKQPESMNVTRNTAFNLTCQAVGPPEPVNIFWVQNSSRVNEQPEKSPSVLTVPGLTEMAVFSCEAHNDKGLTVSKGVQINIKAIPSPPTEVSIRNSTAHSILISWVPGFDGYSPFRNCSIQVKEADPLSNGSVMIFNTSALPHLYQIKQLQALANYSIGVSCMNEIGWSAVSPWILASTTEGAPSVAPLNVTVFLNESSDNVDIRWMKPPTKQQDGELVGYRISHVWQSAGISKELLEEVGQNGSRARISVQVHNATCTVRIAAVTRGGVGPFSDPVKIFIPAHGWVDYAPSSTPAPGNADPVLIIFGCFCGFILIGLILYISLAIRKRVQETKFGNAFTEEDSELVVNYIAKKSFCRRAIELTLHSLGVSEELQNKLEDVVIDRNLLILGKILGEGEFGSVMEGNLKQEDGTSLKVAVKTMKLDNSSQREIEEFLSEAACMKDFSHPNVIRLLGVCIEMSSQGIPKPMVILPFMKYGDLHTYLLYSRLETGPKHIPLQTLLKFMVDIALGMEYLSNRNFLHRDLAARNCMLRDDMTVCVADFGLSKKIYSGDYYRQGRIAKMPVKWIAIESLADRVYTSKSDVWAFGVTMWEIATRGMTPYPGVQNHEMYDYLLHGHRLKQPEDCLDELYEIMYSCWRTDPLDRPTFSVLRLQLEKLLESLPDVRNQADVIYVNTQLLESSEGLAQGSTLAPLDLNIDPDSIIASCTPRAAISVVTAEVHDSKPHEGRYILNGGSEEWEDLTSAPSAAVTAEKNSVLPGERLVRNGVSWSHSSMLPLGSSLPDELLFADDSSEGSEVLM
The series can be described thus: Inhibition of Mer (unknown origin) by cell free assay.

Series [2] is described as follows: Cmax in CAnN.Cg-Foxnlnu/CrlCrlj mouse plasma at 100 mg/kg, po single dose measured up to 24 hrs by liquid chromatography tandem mass spectrometry. The class given is ADME, organism-based. Also noted: route oral, dose 100 mg/kg, time <=24.
Series [3] can be described thus: AUC (0 to 24 hrs) in CAnN.Cg-Foxnlnu/CrlCrlj mouse plasma at 25 mg/kg, po single dose measured up to 24 hrs by liquid chromatography tandem mass spectrometry. The class given is ADME, organism-based. Also noted: route oral, dose 25 mg/kg, time <=24.

`Cc1ccc(-n2c(=O)c(C(=O)Nc3ccc(Oc4ncnc5c4CCN(CC4CCN(C)CC4)C5)c(F)c3)cn(C3CCCC3)c2=O)nc1` gave an IC50 in series [1] of 190 nM. The same molecule had a Cmax in series [2] of 10900 ng/mL. For the same molecule, in series [3], the AUC(0-t) stood at 22900 ng·h/mL.

For orientation: IC50 means the concentration needed to halve the response being measured. Read a low IC50 as greater potency. What is called Cmax is the maximum level reached in the sampled fluid or tissue. The AUC(0-t) is exposure summed from dosing to a finite time, without extrapolation to infinity.

The values are drawn from ChEMBL document CHEMBL4823291, “Discovery of 5,6,7,8-tetrahydropyrido[3,4-d]pyrimidine derivatives as novel selective Axl inhibitors” (Bioorg Med Chem Lett, 2021).
